Test results taken from US5187165A, “Memory enhancing and analgesic 1,2,3a,8,8a-hexahydro-3a,8(and 1,3a,8)-di(and tri)methylpyrrolo[2,3-b]indoles” (priority 1988, dated 1993).
Where two headings read alike, the source gives them in different places.

Legend:
butyrylcholinesterase = details: ex vivo; cited from earlier work
[1] = molecular target: T1, butyrylcholinesterase (Serum AChE) (Homo sapiens, UniProt P06276); details: background statement; cited from earlier work
T1 construct: A vial of lyophilized human serum; purchased Biodynamics, Houston, Tex; (Precilip); host or cells: lyophilized human serum, reconstituted in water; enzyme not purified
T1 sequence (P06276 29-602): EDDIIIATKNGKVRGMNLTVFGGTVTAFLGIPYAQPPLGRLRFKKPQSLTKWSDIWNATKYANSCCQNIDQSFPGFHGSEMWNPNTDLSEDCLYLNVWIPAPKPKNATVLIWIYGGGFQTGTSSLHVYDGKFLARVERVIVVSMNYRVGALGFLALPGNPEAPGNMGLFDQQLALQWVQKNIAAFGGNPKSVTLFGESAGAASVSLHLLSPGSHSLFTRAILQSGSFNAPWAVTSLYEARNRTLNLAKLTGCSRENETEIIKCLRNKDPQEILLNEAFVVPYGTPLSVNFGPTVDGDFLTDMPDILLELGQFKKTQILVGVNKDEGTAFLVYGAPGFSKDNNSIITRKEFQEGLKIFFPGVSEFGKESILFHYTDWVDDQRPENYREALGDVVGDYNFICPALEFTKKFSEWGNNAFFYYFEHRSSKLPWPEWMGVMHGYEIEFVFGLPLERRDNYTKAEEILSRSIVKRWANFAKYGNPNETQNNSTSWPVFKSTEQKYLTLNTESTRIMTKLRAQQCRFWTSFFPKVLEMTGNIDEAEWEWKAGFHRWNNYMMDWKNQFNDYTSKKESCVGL

norepinephrine uptake [2] = details: background statement; cited from earlier work
[3] = system: scopolamine-induced memory deficit; experiment: Dark Avoidance Assay (scopolamine induced memory deficit reversal); type: in vivo, mice; details: Mus musculus, sc, 24 h, read-out: % of Animals with Scopolamine Induced Memory Deficit Reversal
Method: In this assay mice are tested for their ability to remember an unpleasant stimulus for a period of 24 hours. A mouse is placed in a chamber that contains a dark compartment; a strong incandescent light drives it to the dark compartment, where an electric shock is administered through metal plates on the floor. The animal is removed from the testing apparatus and tested again, 24 hours later, for the ability to remember the electric shock.
If scopolamine, an anticholinergic that is known to cause memory impairment, is administered before an animal's initial exposure to the test chamber, the animal re-enters the dark compartment shortly after being placed in the test chamber 24 hours later. This effect of scopolamine is blocked by an active test compound, resulting in a greater interval before re-entry into the dark compartment.
The results for an active compound are expressed as the percent of a group of animals in which the effect of scopolamine is blocked, as manifested by an increased interval between being placed in the test chamber and re-entering the dark compartment.

[4] = molecular target: T2, acetylcholinesterase (Brain AChE) (Rattus norvegicus, UniProt P37136); details: background statement; brain vs serum AChE; cited from earlier work
T2 construct: corpora striata dissected free, weighed and homogenized in 19 volumes; from tissue; host or cells: corpora striata of male Wistar rats, crude homogenate in phosphate buffer
T2 sequence (P37136 32-614): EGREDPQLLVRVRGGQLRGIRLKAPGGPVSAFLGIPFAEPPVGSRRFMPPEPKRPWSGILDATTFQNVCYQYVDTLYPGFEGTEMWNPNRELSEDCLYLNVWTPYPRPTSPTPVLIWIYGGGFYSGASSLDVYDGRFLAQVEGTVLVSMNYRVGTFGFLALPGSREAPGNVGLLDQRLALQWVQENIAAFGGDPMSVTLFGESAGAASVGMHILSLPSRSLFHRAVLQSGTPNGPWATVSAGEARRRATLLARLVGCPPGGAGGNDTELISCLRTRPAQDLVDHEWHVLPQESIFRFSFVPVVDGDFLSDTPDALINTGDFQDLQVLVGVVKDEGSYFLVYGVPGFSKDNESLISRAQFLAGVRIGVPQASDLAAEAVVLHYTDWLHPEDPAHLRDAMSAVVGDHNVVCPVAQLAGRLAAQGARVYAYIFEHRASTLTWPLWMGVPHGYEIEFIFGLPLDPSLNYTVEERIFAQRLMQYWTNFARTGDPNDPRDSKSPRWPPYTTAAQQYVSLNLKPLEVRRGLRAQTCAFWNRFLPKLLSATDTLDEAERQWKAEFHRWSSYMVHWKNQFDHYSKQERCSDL

Acute toxicity (LD50) = type: in vivo; details: death within 24 hours; for LD50 at 24 h: in vivo, ip; for LD50: i.p., 1440 min
Method: LD50 is determined by the dose (mg/kg) at which 50% of the test animals die within 24 hours. In many cases this dose is an approximation.

norepinephrine uptake [5] = type: biochemical; details: rat brain synaptosomes, 50 nM 3H-NE, 37° C., 5 min; read-out: Reuptake Inhibition of neurotransmitters, Norepinephrine
yohimbine toxicity = experiment: animal or person; type: in vivo, mice; details: for ED50: Mus musculus, po, 18 h, read-out: YTP ED50
Method: The potentiation of yohimbine toxicity is considered an additional test for screening antidepressant drugs. The method used in this invention is as follows:
Male mice weighing 20 to 30 grams are used. They are housed under standard laboratory conditions with free access to food and water. Compounds are dissolved in distilled water and a suitable surfactant is added in case of poor solubility. Yohimbine hydrochloride is dissolved in distilled water as well. Both compound and yohimbine are administered in a volume of […].
Compounds and vehicle are administered orally 60 minutes prior to a sublethal dose (30 mg/kg s.c.) of yohimbine hydrochloride which alone causes death in about […] of mice (4 out of 400). Ten mice per group are then placed in plastic cages (26×10×16 cm) with food and water available ad libitum. Mortality rate is assessed 18 hours postdosing. ED50 is defined as dose of drug causing death in 5/10 mice and is calculated by probit analysis.

[6] = molecular target: T2, acetylcholinesterase (Brain AChE); experiment: In Vitro Inhibition of Acetylcholinesterase Activity in Rat Striatum; type: biochemical
Excerpt: (§1) Cholinesterases are found throughout the body, both in the brain and in serum. However, only brain acetylcholinesterase (AChE) distribution is correlated with central cholinergic innervation. […] We have determined in vitro inhibition of acetylcholinesterase activity in rat striatum and in vitro inhibition of butrylcholinesterase activity in human serum according to the methods described below.
The method described below was used in this invention for assaying cholinesterase activity. This is a modification of the method of Ellman et al., Biochem. Pharmacol. 7, 98 (1961).
1. 0.05M Phosphate buffer, pH 7.2
(§2) (a) 9.9 mg 5,5-dithiobisnitrobenzoic acid (DTNB) (0.25 mM)
(b) 99 mg s-acetylthiocholine chloride (5 mM)
(§3) (c) q.s. to 100 ml with 0.05M phosphate buffer, pH 7.2 (reagent 1)
Male Wistar rats are decapitated, brains rapidly removed, corpora striata dissected free, weighed and homogenized in 19 volumes (approximately 7 mg protein/ml) of 0.05M phosphate buffer, pH 7.2 using a Potter-Elvehjem homogenizer. A 50 microliter aliquot of the homogenate is added to 50 microliter vehicle of various concentrations of the test drug and preincubated for 10 minutes at room temperature.
1. For routine IC50 determinations the Abbott Bichromatic Analyzer, ABA-100, is used to determine acetylcholinesterase activity.
Incubation temperature: 30° C.
Following the 10 minute preincubation of the tissue (enzyme) with the inhibitor, the samples are mixed with the substrate chromogen buffer by the ABA-100. Using the indicated instrument settings the ABA-100 automatically reads the color reaction and prints out the results in enzyme units after 15 minutes.
2. The enzyme activity can also be measured with Gilford 250 spectrophotometer. This method is used for more accurate kinetic measurments.
Reagents are added to the reference and sample side of a split curvette as follows.
The uninhibited activity of the enzyme (tissue homogenate) is first determined. Test drugs are made up in a suitable solvent and added in suitable dilutions to the buffer vehicle. The reaction rate is determined by the slope of the recorded absorbance change. The actual rate (moles/liter/min) can be calculated as described in the following formula
rate(moles/liter/min)=slope/(1.36×10^4).

[7] = molecular target: T1, butyrylcholinesterase (Serum AChE); experiment: In Vitro Inhibition of Butyrylcholinesterase Activity in Human Serum; type: biochemical
Excerpt: as §1
This assay can be used in conjunction with the acetylcholinesterase assay to determine the enzyme selectivity of various chloinesterase inhibitors.
Butyrylcholinesterase (BChE), which is sometimes called pseudocholinesterase, preferentially hydrolyzes butyrylcholine. This enzyme is found in the highest amounts in serum, but its physiological role is not known.
as §2
(b) 113 mg s-butyrylthiochloine chloride (5 mM)
as §3
A vial of lyophilized human serum (Precilip, Biodynamics, Houston, Tex. is reconstituted in 3 ml of distilled water. A 10 microliter aliquot of this suspension is added to 90 microliter of the vehicle or various concentrations of the test drug and preincubated for 10 minutes at room temperature.
Substantially the same procedure is used as described above in Section C of the Procedure used for determining the inhibition of acetylcholinsterase activity.

[8] = system: tetrabenazine-induced ptosis; experiment: Prevention of Tetrabenazine-Induced Ptosis In Mice (TBZ); type: in vivo
Excerpt: Tetrabenazine (TBZ) induces behavioral depression with concomitant ptosis in mice similar to reserpine. Antidepressant compounds, both monoamineoxidase inhibitors and tricyclics, are known to prevent or antagonize these effects and the degree of antagonism correlates with clinical efficacy. The prevention of TBZ-induced ptosis in mice is used as a preliminary screen for possible antidepressant activity. The method used in this invention is as follows:
Male mice weighing 20 to 30 grams are used in test groups of five subjects. All compounds are dissolved or suspended with a suitable surfactant in distilled water and administered in volumes of 10 ml/kg of body weight. TBZ solution is made from the methanesulfonate salt and the concentration is adjusted to enable administration of 60 mg/kg of base by intraperitoneal (i.p.) injection.
The pretreatment time is measured from the time of dosing to observation. Therefore, when a […] pretreat is utilized, drug and TBZ are given simultaneously. A control group receives solvent and TBZ at intervals identical to drug group. For a primary screen, the drug is administered i.p. and a group size of five is utilized. Eight animals/group are used for a dose range.
Thirty minutes after TBZ, the subjects are placed in individual plastic containers (10.5×8×6 inches) in the presence of white noise and one minute after the transfer, they are scored for ptosis on the following scale: Eyes closed=4, eyes 3/4 closed=3, eyes 1/2 closed=2, eyes 1/4 closed=1, eyes open=0. The total score for each group of five in a primary screen will, therefore, be from 0 to 20 and these scores are used as indications of drug activity.
The vehicle control group score is used as a determinant of the validity of each test. If the control score is less than 17, the results are discarded and the test repeated. The calculation of percent inhibition of ptosis is: [formula]
Linear regression analysis is used to estimate ED50 values and 95% confidence intervals.

Structure (SMILES) | inhibition of NE uptake (norepinephrine uptake [2]) | LD50 at 24 h (Acute toxicity (LD50)) [mg/kg] | IC50 (norepinephrine uptake [5]) [µM] | IC50 [6] [µM] | IC50 [7] [µM] | other results
CC(C)NP(=O)(NC(C)C)OP(=O)(NC(C)C)NC(C)C [ISO-OMPA, tetraisopropyl pyrophosphoramide] | – | – | – | – | – | cholinomimetic effects correlated with butyrylcholinesterase inhibition (butyrylcholinesterase): not correlated with any significant acute chloinomimetic effects; selectivity of inhibition of butyrylcholinesterase [1]: selective inhibitors of butyrylcholinesterase
C[C@@H]1O[C@@H](O[C@H]2C[C@@H](O)[C@]3(CO)[C@H]4[C@H](O)C[C@]5(C)[C@@H](C6=CC(=O)OC6)CC[C@]5(O)[C@@H]4CC[C@]3(O)C2)[C@H](O)[C@H](O)[C@H]1O [ouabain] | inhibited | – | – | – | – | –
CCN(CC)C(C)CN1c2ccccc2Sc2ccccc21 (centres unmarked) [Ethopropazine] | – | – | – | – | – | selectivity of inhibition of butyrylcholinesterase [1]: selective inhibitors of butyrylcholinesterase
CC(COc1ccccc1)N(CCCl)Cc1ccccc1 (centres unmarked) [phenoxybenzamine] | inhibited | – | – | – | – | –
CNC(=O)Oc1ccc2c(c1)[C@]1(C)CCN(C)[C@@H]1N2C [Physostigmine, (3aS-cis)-1,2,3,3a,8,8a-hexahydro-1,3a,8-trimethylpyrrolo[2,3-b]indol-5-ol, methyl carbamate ester, reference compound] | – | ~3 | > 20 | – | – | responders at 0.31 mg/kg ([3]; mice, 0.31 mg/kg s.c.): 20%; specificity of AChE inhibition [4]: an unspecific AChE inhibitor
C[C@@H](NC(=O)Oc1ccc2c(c1)[C@]1(C)CCN(C)[C@@H]1N2C)c1ccccc1 (relative stereo) [(3aS-cis)-1,2,3,3a,8,8a-Hexahydro-1,3a,8-trimethylpyrrolo[2,3-b]indol-5-ol,[(R*)-(1-phenyl)ethyl] carbamate ester] | – | ~40 | 12 | 1.2 | 0.9 | responders at 1.25 mg/kg [3]: 67%; ED50 (yohimbine toxicity): 16.1 mg/kg; % Inhibition, TBZ ([8]; 20 mg/kg): 50%
CN1CC[C@@]2(C)c3cc(OC(=O)NC4CCCCC4)ccc3N(C)[C@@H]12 [(3aS-cis)-1,2,3,3a,8,8a-Hexahydro-1,3a,8-trimethylpyrrolo[2,3-b]indol-5-ol,cyclohexyl carbamate ester] | – | > 5 | – | 0.9 | > 1000 | responders at 0.16 mg/kg [3]: 31%; LD50 (Acute toxicity (LD50)): < 10 mg/kg; % Inhibition, TBZ ([8]; 1.25 mg/kg): 20%
CN1CC[C@@]2(C)c3cc(OC(=O)Nc4cccc(Cl)c4)ccc3N(C)[C@@H]12 [(3aS-cis)-1,2,3,3a,8,8a-Hexahydro-1,3a,8-trimethylpyrrolo[2,3-b]indol-5-ol,3-chlorophenyl carbamate ester] | – | > 80 | 1.8 | 0.6 | > 1000 | responders at 5 mg/kg [3]: 20%; % Inhibition, YTP (yohimbine toxicity; mice, oral, 80 mg/kg): 63%; % Inhibition, TBZ ([8]; 60 mg/kg): 45%
C[C@H](NC(=O)Oc1ccc2c(c1)[C@]1(C)CCN(C)[C@@H]1N2C)c1ccccc1 (relative stereo) [(3aS-cis)-1,2,3,3a,8,8a-Hexahydro-1,3a,8-trimethylpyrrolo[2,3-b]indol-5-ol,[(S*)-(1-phenyl)ethyl] carbamate ester] | – | > 40 | 2.2 | 3.1 | > 1000 | responders at 0.31 mg/kg [3]: 20%; ED50 (yohimbine toxicity): 30 mg/kg; LD50 (Acute toxicity (LD50)): < 80 mg/kg; % Inhibition, TBZ ([8]; 20 mg/kg): 35%
COC(=O)[C@H]1[C@@H](OC(=O)c2ccccc2)C[C@@H]2CC[C@H]1N2C [cocaine] | potently inhibited | – | – | – | – | –
